Measured values: patent US20230131899A1, “INHIBITORS OF MICROBIALLY INDUCED AMYLOID” (Axial Therapeutics, Inc., priority 2020, published 2023)
Like-named read-outs stand apart in the source and are kept apart here.

System: CsgA gene expression (csgBAC promoter-GFP reporter) in E. coli UTI89
Experiment: In vitro live cell fluorescent reporter assay of CsgA transcription (Reporter Assay)
Type: cell-based
Conditions: Escherichia coli
In short: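 Compounds at 0.14–100 μM (1% DMSO final) incubated 20 h at 27 °C in YESCA broth with UTI89 carrying a single-copy GFP reporter under the csgBAC intergenic promoter region, inoculum OD600 0.003. Fluorescence normalized to vehicle wells gave IC50 and 50%-of-vehicle concentration; OD600 reduction >10% flagged growth impact.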

[1] = read-out: Reporter Assay Abs IC50 (μM), median Abs IC50 in the CsgA reporter assay, N/A = maximum expression reduction is <50% of control
[2] = read-out: Reporter Assay Abs IC50, activity range, class symbol

In the case of O=C(O)C1CN(Cc2ccccc2CO)c2c(-c3cccc(C(F)(F)F)c3)c(Cc3cccc4ccccc34)c(Cl)c(=O)n21 (centres unmarked) [Compound 181, 6-chloro-1-(2-(hydroxymethyl)benzyl)-7-(naphthalen-1-ylmethyl)-5-oxo-8-(3-(trifluoromethyl)phenyl)-1,2,3,5-tetrahydroimidazo[1,2-a]pyridine-3-carboxylic acid], the IC50 [1] is reported as 2 µM and the IC50 [2] is reported as 1.3 to 4.5 µM.
O=C(O)C1CN(CC2CCOCC2)c2c(-c3cccc(C(F)(F)F)c3)c(Cc3cccc4ccccc34)c(Cl)c(=O)n21 (centres unmarked) [Compound 182, 6-chloro-7-(naphthalen-1-ylmethyl)-5-oxo-1-((tetrahydro-2H-pyran-4-yl)methyl)-8-(3-(trifluoromethyl)phenyl)-1,2,3,5-tetrahydroimidazo[1,2-a]pyridine-3-carboxylic acid] gave an IC50 [1] of 2.5 µM and an IC50 [2] of 1.3 to 4.5 µM.
NC(=O)c1c(Cc2cccc3ccccc23)c(-c2cccc(C(F)(F)F)c2)c2n(c1=O)C(C(=O)O)CN(CCCO)S2(=O)=O (centres unmarked) [Compound 184, 7-carbamoyl-2-(3-hydroxypropyl)-8-(naphthalen-1-ylmethyl)-6-oxo-9-(3-(trifluoromethyl)phenyl)-3,4-dihydro-2H,6H-pyrido[1,2-e][1,2,5]thiadiazine-4-carboxylic acid 1,1-dioxide] gave an IC50 [1] of 2.7 µM and an IC50 [2] of 1.3 to 4.5 µM.
For O=C(O)C1CN(Cc2ccccc2)c2c(-c3cccc(C(F)(F)F)c3)c(Cc3cccc4ccccc34)cc(=O)n21 (centres unmarked) [Compound 187, 1-benzyl-7-(naphthalen-1-ylmethyl)-5-oxo-8-(3-(trifluoromethyl)phenyl)-1,2,3,5-tetrahydroimidazo[1,2-a]pyridine-3-carboxylic acid], the IC50 [1] was 19 µM and the IC50 [2] was greater than 10 µM.
O=C(O)C1CN(CCCCCCCN2CC(C(=O)O)n3c2c(-c2cccc(C(F)(F)F)c2)c(Cc2cccc4ccccc24)c(Cl)c3=O)c2c(-c3cccc(C(F)(F)F)c3)c(Cc3cccc4ccccc34)c(Cl)c(=O)n21 (centres unmarked) [Compound 188, 1,1′-(heptane-1,7-diyl)bis(6-chloro-7-(naphthalen-1-ylmethyl)-5-oxo-8-(3-(trifluoromethyl)phenyl)-1,2,3,5-tetrahydroimidazo[1,2-a]pyridine-3-carboxylic acid)] showed an IC50 [1] of 0.8 µM and an IC50 [2] of less than 1.3 µM.
Work on COc1ccc(CN2CC(C(=O)O)n3c2c(-c2cccc(C(F)(F)F)c2)c(Cc2cccc4ccccc24)c(Cl)c3=O)cc1 (centres unmarked) [Compound 192, 6-chloro-1-(4-methoxybenzyl)-7-(naphthalen-1-ylmethyl)-5-oxo-8-(3-(trifluoromethyl)phenyl)-1,2,3,5-tetrahydroimidazo[1,2-a]pyridine-3-carboxylic acid] yielded an IC50 [1] of 2.5 µM and an IC50 [2] of 1.3 to 4.5 µM.
O=C(O)C1CN(CCCCCCN2CC(C(=O)O)n3c2c(-c2cccc(C(F)(F)F)c2)c(Cc2cccc4ccccc24)c(Cl)c3=O)c2c(-c3cccc(C(F)(F)F)c3)c(Cc3cccc4ccccc34)c(Cl)c(=O)n21 (centres unmarked) [Compound 193, 1,1′-(hexane-1,6-diyl)bis(6-chloro-7-(naphthalen-1-ylmethyl)-5-oxo-8-(3-(trifluoromethyl)phenyl)-1,2,3,5-tetrahydroimidazo[1,2-a]pyridine-3-carboxylic acid)] was tested, and the IC50 [1] was 0.6 µM and the IC50 [2] was less than 1.3 µM.
O=C(O)C1CN(Cc2ccccc2)c2c(-c3cccc(C(F)(F)F)c3)c(Cc3cccc4ccccc34)c(F)c(=O)n21 (centres unmarked) [Compound 194, 1-benzyl-6-fluoro-7-(naphthalen-1-ylmethyl)-5-oxo-8-(3-(trifluoromethyl)phenyl)-1,2,3,5-tetrahydroimidazo[1,2-a]pyridine-3-carboxylic acid] showed an IC50 [1] of 1.4 µM and an IC50 [2] of 1.3 to 4.5 µM.
For O=C(O)C1CN(Cc2cccc(O)c2)c2c(-c3cccc(C(F)(F)F)c3)c(Cc3cccc4ccccc34)c(Cl)c(=O)n21 (centres unmarked) [Compound 196, 6-chloro-1-(3-hydroxybenzyl)-7-(naphthalen-1-ylmethyl)-5-oxo-8-(3-(trifluoromethyl)phenyl)-1,2,3,5-tetrahydroimidazo[1,2-a]pyridine-3-carboxylic acid], the IC50 [1] was 2.8 µM and the IC50 [2] was 1.3 to 4.5 µM.
O=C(O)C1CN(CCCO)c2c(-c3cccc(C(F)(F)F)c3)c(Cc3cccc4ccccc34)c(Cl)c(=O)n21 (centres unmarked) [Compound 197, 6-chloro-1-(3-hydroxypropyl)-7-(naphthalen-1-ylmethyl)-5-oxo-8-(3-(trifluoromethyl)phenyl)-1,2,3,5-tetrahydroimidazo[1,2-a]pyridine-3-carboxylic acid] was tested, and the IC50 [1] was 19.3 µM and the IC50 [2] was greater than 10 µM.
O=C(O)C1CN(Cc2ccccc2)c2c(-c3cccc(Br)c3)c(Cc3cccc4ccccc34)c(Cl)c(=O)n21 (centres unmarked) [Compound 198, 1-benzyl-8-(3-bromophenyl)-6-chloro-7-(naphthalen-1-ylmethyl)-5-oxo-1,2,3,5-tetrahydroimidazo[1,2-a]pyridine-3-carboxylic acid] gave an IC50 [1] of 5 µM and an IC50 [2] of 4.6 to 10 µM.
O=C(O)C1CN(CCCCCO)c2c(-c3cccc(C(F)(F)F)c3)c(Cc3cccc4ccccc34)c(Cl)c(=O)n21 (centres unmarked) [Compound 199, 6-chloro-1-(5-hydroxypentyl)-7-(naphthalen-1-ylmethyl)-5-oxo-8-(3-(trifluoromethyl)phenyl)-1,2,3,5-tetrahydroimidazo[1,2-a]pyridine-3-carboxylic acid] was tested, and the IC50 [1] was 6.9 µM and the IC50 [2] was 4.6 to 10 µM.
O=C(O)C1CN(Cc2cccc3ccccc23)c2c(-c3cccc(C(F)(F)F)c3)c(Cc3cccc4ccccc34)c(Cl)c(=O)n21 (centres unmarked) [Compound 200, 6-chloro-1,7-bis(naphthalen-1-ylmethyl)-5-oxo-8-(3-(trifluoromethyl)phenyl)-1,2,3,5-tetrahydroimidazo[1,2-a]pyridine-3-carboxylic acid] was tested, and the IC50 [1] was 1.3 µM and the IC50 [2] was 1.3 to 4.5 µM.
With O=C(O)C1CN(Cc2ccc(-c3ccccc3)cc2)c2c(-c3cccc(C(F)(F)F)c3)c(Cc3cccc4ccccc34)c(Cl)c(=O)n21 (centres unmarked) [Compound 202, 1-([1,1′-biphenyl]-4-ylmethyl)-6-chloro-7-(naphthalen-1-ylmethyl)-5-oxo-8-(3-(trifluoromethyl)phenyl)-1,2,3,5-tetrahydroimidazo[1,2-a]pyridine-3-carboxylic acid] the IC50 [1] was 0.8 µM and the IC50 [2] was less than 1.3 µM.
Work on O=C(O)C1CN(CCC2CCCCC2)c2c(-c3cccc(C(F)(F)F)c3)c(Cc3cccc4ccccc34)c(Cl)c(=O)n21 (centres unmarked) [Compound 207, 6-chloro-1-(2-cyclohexylethyl)-7-(naphthalen-1-ylmethyl)-5-oxo-8-(3-(trifluoromethyl)phenyl)-1,2,3,5-tetrahydroimidazo[1,2-a]pyridine-3-carboxylic acid] yielded an IC50 [1] of 0.7 µM and an IC50 [2] of less than 1.3 µM.
Work on CC(C)(C)c1ccc(Cc2c(-c3cccc(C(F)(F)F)c3)c3n(c(=O)c2Cl)C(C(=O)O)CN3Cc2ccccc2)cc1 (centres unmarked) [Compound 216, 1-benzyl-7-(4-(tert-butyl)benzyl)-6-chloro-5-oxo-8-(3-(trifluoromethyl)phenyl)-1,2,3,5-tetrahydroimidazo[1,2-a]pyridine-3-carboxylic acid] yielded an IC50 [1] of 0.7 µM and an IC50 [2] of less than 1.3 µM.
